Assay results taken from patent US20240000942A1, “Craniofacial implant made of polyether ether ketone (PEEK) with deposits to store and release active substances or active Ingredient” (Arcosystem SPA, priority 2022, published 2024).
Where “and” joins values, the source holds several entries; their conditions need not be identical. Identical values can stand only once. Entries after “also recorded” stand apart in the source; their conditions may differ.

Assay: Stability of the vancomycin solution within the implant reservoir (HPLC)
Assay type: physicochemical
Protocol: For this, a time zero (To) sample corresponding to a sample that was immediately analyzed after its reconstitution was analyzed, along with a sample that was left to rest for 24 hours within the implant. In this way, results from the 24 hour time frame were compared with those of time zero as sample areas and degradation percentage at 24 hours.
Shaking up to the complete solution of the lyophilized powder, taking 0.5 mL of said ampule, and diluted with physiological saline solution up to 5 mL of final volume. This 5 mL of solution is injected in the reservoir of the implant. […] Said 0.5 mL were diluted up to 5 mL of final volume using 0.2M potassium dibasic phosphate buffer adjusted to pH 7.4. Then, using a syringe, said volume was loaded in the reservoir or capsule of the implant, the implant was then sealed and incorporated in an empty beaker. Nominal concentration of the solution within the reservoir is […].
After 24 hours, the chamber or reservoir was opened to extract the 0.5 mL of the solution contained within. Of said 0.5 mL extracted from the reservoir, a 0.1 mL aliquot is taken that then is transferred to a 100 mL flask for its analysis using HPLC, considering the same calibration and standard curves that were described for the previous example.

In the case of `CN[C@H](CC(C)C)C(=O)N[C@H]1C(=O)N[C@@H](CC(N)=O)C(=O)N[C@H]2C(=O)N[C@H]3C(=O)N[C@H](C(=O)N[C@H](C(=O)O)c4cc(O)cc(O)c4-c4cc3ccc4O)[C@H](O)c3ccc(c(Cl)c3)Oc3cc2cc(c3O[C@@H]2O[C@H](CO)[C@@H](O)[C@H](O)[C@H]2O[C@H]2C[C@](C)(N)[C@H](O)[C@H](C)O2)Oc2ccc(cc2Cl)[C@H]1O` [vancomycin], the HPLC sample area (24 hour period within the implant) is reported as 94679 and 94744, the HPLC sample area (24 hour period within the implant, mean) is reported as 94711.5 and the “degradation of vancomycin within the implant (in words)” value (24 hours) is reported as “not significant; also recorded: no indication of significative degradation”. The HPLC sample area (Time 0 (analyzed immediately after reconstitution)) was 948050 and 948671 and the HPLC sample area (Time 0 (analyzed immediately after reconstitution), mean) was 948360.5.
